Active and inactive are the calls of the source. No rule for the calls is given here.
Assay: T. brucei MetRS enzyme inhibitors, late-stage follow-up, biochemical, radioactivity, assay provider, round 2 (AID 1053198)
Conditions: purified enzyme, radiolabel aminoacylation, 120 min, stronger effect = higher value

Structure (SMILES) | inhibition (at 10 µM) | inhibition (inhibition, at 1 µM)
CCN(CC)C(=O)C(=O)c1cn(CC(=O)Nc2cc(C)cc(C(F)(F)F)c2)c2ccccc12 | 100% | 96.2%
CCN(CC)C(=O)C(=O)c1cn(CC(=O)Nc2cc(Br)cc(C(F)(F)F)c2)c2ccccc12 | 101% | 95.8%
CCN(CC)C(=O)C(=O)c1cn(CC(=O)Nc2cc(Oc3ccccc3)cc(C(F)(F)F)c2)c2ccccc12 | 98.3% | 95.6%
CCN(CC)C(=O)C(=O)c1cn(CC(=O)Nc2cc(Cl)cc(C(F)(F)F)c2)c2ccccc12 | 100% | 95.2%
CCN(CC)C(=O)C(=O)c1cn(CC(=O)Nc2cc(C(F)(F)F)cc(C(F)(F)F)c2)c2ccccc12 | 100% | 90.3%
CCN(CC)C(=O)C(=O)c1cn(CC(=O)Nc2cccc(C(F)(F)F)c2)c2cc(OC)ccc12 | 4.41% (inactive) | -4.41%

From PubChem BioAssay AID1053198 (The Scripps Research Institute Molecular Screening Center, 2014)
